We go through four compounds from US20070160725A1, “Use of extracts and compounds of allium-genus plants as preservatives in the food and agri-food industries” (MOUSALA, S., L., priority 2004, published 2007).

Common to all, as to assay: agar diffusion, inhibition halo
Format in all cases: cell-based
A general note: Agar diffusion results depend on both activity and mobility in agar.

Experiment [1] relates to Geotrichum candidum CECT 1902. Here is the method:
(§1) In order to evaluate the antimicrobial activity the agar diffusion technique with cellulose discs of 6 mm in diameter impregnated with the different active ingredient testing doses was used.
(§2) Antifungal capacity was assessed against suspensions of […], harvested from pure cultures of the selected molds and against suspensions of 10^7 cells/ml for the case of yeasts. The culture medium used was the 2% Sabouraud-glucose medium (Merck).
(§3) After incubating the culture dishes inoculated with the different organisms at the corresponding temperatures, the microbial inhibition halos that appeared were measured, and said measurement includes the 6 mm diameter of the cellulose discs.

Experiment [2] concerns Penicillium italicum CECT 2294. The conditions noted are these: for zone of inhibition at 1000 µg/mL / zone of inhibition at 2000 µg/mL / zone of inhibition at 4000 µg/mL: Penicillium italicum. Here is the method: as §1, §2, §3
The subject of experiment [3] is Trichoderma aureoviride CECT 20102. On the procedure:
as §1, §2, §3

The mark [4] stands for this setting: CECT2294, read-out: inhibition halo diameter.
Setting [5] is: CECT2294, 1000 ppm of commercial product, read-out: inhibition halo diameter.
Where [6] appears, read: CECT2294, 2000 ppm of commercial product, read-out: inhibition halo diameter.
Setting [7] is: CECT2294, 4000 ppm of commercial product, read-out: inhibition halo diameter.

Like-named read-outs stand apart in the source and are kept apart here. Bounds are passed on as bounds.

With `CCCN(CCOc1c(Cl)cc(Cl)cc1Cl)C(=O)n1ccnc1` [Prochloraz], the inhibition halo diameter was determined as 0 mm in experiment [1] (1000 ppm of commercial product); 0 mm in experiment [1] (2000 ppm of commercial product); 0 mm in experiment [1] (4000 ppm of commercial product); 8 mm in experiment [3] (1000 ppm of commercial product); 11 mm in experiment [3] (2000 ppm of commercial product); 12 mm in experiment [3] (4000 ppm of commercial product). Further, the zone of inhibition at 1000 µg/mL in experiment [2] (setting [4]) came to 31 mm. Also, in experiment [2] (setting [4]), the zone of inhibition at 2000 µg/mL was 35 mm. Moreover, the zone of inhibition at 4000 µg/mL in experiment [2] (setting [4]) worked out at 35 mm.

On to `C=CCOC(Cn1ccnc1)c1ccc(Cl)cc1Cl` (stereo not drawn) [Imazalil], for which the inhibition halo diameter in experiment [1] (1000 ppm of commercial product) is reported as 20 mm; in experiment [1] (2000 ppm of commercial product), 23 mm; in experiment [1] (4000 ppm of commercial product), 26 mm; in experiment [3] (1000 ppm of commercial product) it was 20 mm; in experiment [3] (2000 ppm of commercial product) it was 25 mm; in experiment [3] (4000 ppm of commercial product), 31 mm. The zone of inhibition at 1000 µg/mL in experiment [2] (setting [5]) was 46 mm. Also, the zone of inhibition at 2000 µg/mL in experiment [2] (setting [6]) was 47 mm. The zone of inhibition at 4000 µg/mL in experiment [2] (setting [7]) was 50 mm.

Guazatine: the inhibition halo diameter in experiment [1] (1000 ppm of commercial product) came out at 27 mm; in experiment [1] (2000 ppm of commercial product), 30 mm; in experiment [1] (4000 ppm of commercial product), 35 mm; in experiment [2] (1000 ppm of commercial product) it was 10 mm; in experiment [2] (2000 ppm of commercial product) it was 12 mm; in experiment [2] (4000 ppm of commercial product), 15 mm. For the same compound, the inhibition halo diameter in experiment [3] (1000 ppm of commercial product) came out at 25 mm; in experiment [3] (2000 ppm of commercial product) it was 30 mm; in experiment [3] (4000 ppm of commercial product) it was 35 mm.

As to `c1ccc2[nH]c(-c3cscn3)nc2c1` [Thiabendazole], the inhibition halo diameter in experiment [1] (1000 ppm of commercial product) stood at 0 mm; in experiment [1] (2000 ppm of commercial product), 0 mm; in experiment [1] (4000 ppm of commercial product), 0 mm; in experiment [3] (1000 ppm of commercial product) it was 24 mm; in experiment [3] (2000 ppm of commercial product), 26 mm; in experiment [3] (4000 ppm of commercial product), 26 mm. For the same compound, in experiment [2] (setting [5]), the zone of inhibition at 1000 µg/mL was more than 40 mm. In addition, the zone of inhibition at 2000 µg/mL in experiment [2] (setting [6]) was more than 40 mm. The zone of inhibition at 4000 µg/mL in experiment [2] (setting [7]) is more than 40 mm.
